Data set [1] addresses PLK1 (Homo sapiens, UniProt P53350). As to the kind of experiment: IMAP PLK1 TR-FRET counter-screen. Type of data set: biochemical. As to conditions: read-out: IC50 PLK1 (Ave ± SD). The method, then: (§1) Automated, highthroughput screening (HTS) formatted IMAP-based AKT fluorescent polarization assay (AKT FP), and PLK1 and CAK TR-FRET assays were used to assess the specificity of the PKD analogs as previously described. See Sharlow, E. R., et. al., J. Biol Chem, 283: 33516-33526, (2008). For the PLK2 IMAP TR-FRET assay, PLK2 kinase reactions were generated by the stepwise addition of a 3-fold excess concentration of substrate/ATP (1650 nM/105 μM), analog, and PLK2 enzyme (1.02 milliunits/μL). PLK2 kinase reactions were incubated for 150 min at room temperature and stopped with the addition of an IMAP binding reagent supplemented with terbium. Assay plates were then incubated overnight. Analysis was performed as described in the literature. Id.
(§2) The PLK2 substrate (FAM-[…]) was obtained from Molecular Devices (Sunnyvale, Calif.). H-89 was used as a positive inhibitory control compound in the assays. A 10 point concentration range for each compound to be tested was used to determine IC50 values. The maximum concentration of a particular compound used in this assay was either 50 μM, or 100 μM, depending on the solubility of the individual compounds. Each experiment was assayed in triplicate and data is represented as average IC50±SD. The IC50 determinations for each analog evaluated in the IMAP (PLK2, PLK1, CAK, and AKT) formats were conducted within the linear range of the captured signal readout.

Data set [2] concerns the target PLK2 (Homo sapiens, UniProt Q9NYY3). Nature of the data set: PLK2 IMAP TR-FRET counter-screen. Type of data set: biochemical. As to conditions: read-out: IC50 PLK2 (Ave ± SD). The method, then:
as §1, §2

For data set [3], the target named is T1, purified recombinant human PKD1 (Homo sapiens, UniProt Q15139).
T1 sequence (Q15139 1-912): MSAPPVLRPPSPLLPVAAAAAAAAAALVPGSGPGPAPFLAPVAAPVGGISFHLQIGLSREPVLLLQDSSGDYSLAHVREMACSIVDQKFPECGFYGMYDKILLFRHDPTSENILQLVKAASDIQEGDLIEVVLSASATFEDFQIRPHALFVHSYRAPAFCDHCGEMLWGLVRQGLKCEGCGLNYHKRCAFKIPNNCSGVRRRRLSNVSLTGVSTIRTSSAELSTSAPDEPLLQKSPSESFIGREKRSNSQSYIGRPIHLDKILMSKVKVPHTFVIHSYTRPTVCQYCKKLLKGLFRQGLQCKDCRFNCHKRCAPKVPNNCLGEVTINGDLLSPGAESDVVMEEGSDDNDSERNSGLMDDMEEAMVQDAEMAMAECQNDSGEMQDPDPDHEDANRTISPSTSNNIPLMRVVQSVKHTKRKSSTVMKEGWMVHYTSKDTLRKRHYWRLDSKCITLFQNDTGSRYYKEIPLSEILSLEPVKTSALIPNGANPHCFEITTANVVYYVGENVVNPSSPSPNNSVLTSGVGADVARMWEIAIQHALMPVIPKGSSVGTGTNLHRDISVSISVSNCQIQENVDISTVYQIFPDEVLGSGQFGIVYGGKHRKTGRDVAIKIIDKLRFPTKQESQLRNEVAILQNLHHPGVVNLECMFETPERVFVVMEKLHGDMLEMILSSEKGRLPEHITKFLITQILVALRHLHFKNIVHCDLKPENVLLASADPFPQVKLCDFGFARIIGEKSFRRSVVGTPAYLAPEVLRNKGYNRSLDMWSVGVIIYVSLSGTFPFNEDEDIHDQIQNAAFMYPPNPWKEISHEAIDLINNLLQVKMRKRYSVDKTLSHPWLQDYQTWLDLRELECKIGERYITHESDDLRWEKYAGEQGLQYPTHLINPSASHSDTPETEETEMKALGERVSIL
Nature of the data set: radiometric PKD kinase activity assay. Type of data set: biochemical. The method, then:
The radiometric PKD kinase assay was carried out by co-incubating 0.5 μCi γ-32P-ATP (PerkinElmer, Boston, Mass.), 20 μM ATP, 50 ng purified recombinant human PKD (PKD1, PKD2, PKD3) proteins, and 2.5 μg Syntide-2 (Sigma) in 50 μl kinase buffer that contains 50 mM Tris-HCl, pH 7.5, 4 mM MgCl2, 10 mM β-mercaptoethanol. The reaction was carried out under sub-saturation conditions, such that the initial rate was within linear kinetic range. The reaction mixture was incubated at 30° C. for 10 min, followed by spotting 25 μl of the mix onto a Whatman P81 filter paper (Whatman Inc, Clifton, N.J.). The filter papers were then washed three times in 0.5% phosphoric acid, air-dried, and counted using a Beckman LS6500 multi-purpose scintillation counter (Beckman, Fullerton, Calif.).

Data set [4] has as its system AKT. Nature of the data set: IMAP-based AKT fluorescent polarization counter-screen. As to conditions: read-out: IC50 AKT (Ave ± SD). The format is biochemical. How it is done: as §1, §2
The target of data set [5] is T2, PKD1 (Homo sapiens, UniProt Q15139).
T2 sequence (Q15139 1-912): T1 sequence (Q15139 1-912)
As to the kind of experiment: Cellular inhibition of PMA-induced PKD1 S916 autophosphorylation in LNCaP cells (Western blot densitometry). The format is cell-based. More on the design: endogenous in cells; host or cells: LNCaP prostate cancer cells. The settings on record: for IC50: PKD1 autophosphorylation at S916 in LNCaP cells. How it is done:
The compound to be tested was dissolved in DMSO at an initial concentration of 10 mM. LNCaP prostate cancer cells were pre-treated with DMSO or increasing concentrations of the compound for 45 min, followed by treatment with or without 100 nM phorbol 12-myristate 13-acetate (PMA), an activator of PKD, for 20 min. The cells were harvested for Western blot analysis.
Briefly, cells were lysed in lysis buffer containing 200 mM Tris-HCl, pH 7.4, 100 μM 4-(2-aminoethyl)benzenesulfonyl fluoride, 1 mM EGTA, and 1% Triton X-100. Protein concentration was determined using the BCA Protein Concentration Assay reagent kit (Pierce). Equal amounts of protein were subjected to SDS-PAGE followed by electrotransfer to nitrocellulose membranes. Membranes were blocked with 5% nonfat milk in Tris-buffered saline and then probed with primary antibodies for p-S916-PKD1 (Millipore), p-S744/748-PKD1 (Cell Signaling Technology), or GAPDH (Enzo), followed by anti-mouse or anti-rabbit secondary antibodies conjugated to horseradish peroxidase (Bio-Rad). The bands were detected by incubating with the enhanced chemiluminescence (ECL) Western blotting detection reagent (Amersham Biosciences) and exposing to X-ray films.

The target in data set [6] is CAK (CDK7) (Homo sapiens, UniProt P50613). As to the kind of experiment: IMAP CAK TR-FRET counter-screen. The format is biochemical. The settings on record: read-out: IC50 CAK(CDK7) (Ave ± SD). How it is done:
as §1, §2

Data set [7] is described as follows: stability in protic solvents. Type of data set: physicochemical.
In data set [8] the target is T2, PKD1. Nature of the data set: IMAP-FP PKD1 assay. Type of data set: biochemical. The source says:
See Sharlow, E. R., et. al., J Biol Chem, 283: 33516-33526, (2008). The assay established the concentration of inhibitor that is required to reduce PKD1 activity by 50% (IC50), as shown in Table 2 above.

[9] abbreviates: radiometric kinase activity assay, in vitro, read-out: IC50 PKD1.
The mark [10] stands for this setting: read-out: IC50 radiometric PKD1.

Several values for one entry are separate records, joined by “and”; a condition that tells them apart may be missing. Identical values can stand only once. Entries after “also recorded” stand apart in the source; their conditions may differ. Like-named read-outs stand apart in the source and are kept apart here. Some results are limits rather than exact numbers.

PLK1, sequence (P53350 whole entry, species assumed): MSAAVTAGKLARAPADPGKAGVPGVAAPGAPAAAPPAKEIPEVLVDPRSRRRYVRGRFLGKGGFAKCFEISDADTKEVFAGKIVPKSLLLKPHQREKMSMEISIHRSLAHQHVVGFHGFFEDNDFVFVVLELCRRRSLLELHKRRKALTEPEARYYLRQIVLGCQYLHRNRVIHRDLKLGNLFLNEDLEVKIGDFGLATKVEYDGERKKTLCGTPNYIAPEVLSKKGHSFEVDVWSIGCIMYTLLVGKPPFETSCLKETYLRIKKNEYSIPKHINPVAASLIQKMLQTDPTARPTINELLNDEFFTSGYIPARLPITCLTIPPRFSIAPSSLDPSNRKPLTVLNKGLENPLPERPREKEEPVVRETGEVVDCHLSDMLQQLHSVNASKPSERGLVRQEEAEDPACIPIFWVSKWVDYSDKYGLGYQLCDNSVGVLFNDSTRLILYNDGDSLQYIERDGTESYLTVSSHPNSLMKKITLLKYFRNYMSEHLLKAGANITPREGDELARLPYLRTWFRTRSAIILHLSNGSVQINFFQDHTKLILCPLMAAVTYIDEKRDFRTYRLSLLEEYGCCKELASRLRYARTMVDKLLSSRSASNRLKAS
PLK2, sequence (Q9NYY3 whole entry, species assumed): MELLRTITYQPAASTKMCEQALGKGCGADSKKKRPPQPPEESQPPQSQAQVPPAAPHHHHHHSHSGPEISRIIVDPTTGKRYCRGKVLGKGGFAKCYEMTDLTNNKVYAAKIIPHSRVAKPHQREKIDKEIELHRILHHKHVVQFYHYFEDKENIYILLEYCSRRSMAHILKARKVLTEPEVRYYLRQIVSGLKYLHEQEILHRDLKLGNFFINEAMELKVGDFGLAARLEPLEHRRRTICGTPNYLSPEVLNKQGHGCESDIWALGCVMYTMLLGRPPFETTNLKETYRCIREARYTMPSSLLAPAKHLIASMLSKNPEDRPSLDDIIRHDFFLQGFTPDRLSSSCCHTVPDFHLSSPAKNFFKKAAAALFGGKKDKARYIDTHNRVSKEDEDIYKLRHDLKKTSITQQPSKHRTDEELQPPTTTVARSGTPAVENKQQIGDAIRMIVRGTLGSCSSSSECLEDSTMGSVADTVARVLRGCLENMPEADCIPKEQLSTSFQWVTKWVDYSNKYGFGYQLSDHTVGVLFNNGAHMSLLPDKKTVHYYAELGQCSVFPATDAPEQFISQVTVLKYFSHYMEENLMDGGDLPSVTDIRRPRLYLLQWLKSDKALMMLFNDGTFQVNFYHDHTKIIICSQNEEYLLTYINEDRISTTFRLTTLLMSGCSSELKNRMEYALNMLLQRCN
CAK (CDK7), sequence (P50613 whole entry, species assumed): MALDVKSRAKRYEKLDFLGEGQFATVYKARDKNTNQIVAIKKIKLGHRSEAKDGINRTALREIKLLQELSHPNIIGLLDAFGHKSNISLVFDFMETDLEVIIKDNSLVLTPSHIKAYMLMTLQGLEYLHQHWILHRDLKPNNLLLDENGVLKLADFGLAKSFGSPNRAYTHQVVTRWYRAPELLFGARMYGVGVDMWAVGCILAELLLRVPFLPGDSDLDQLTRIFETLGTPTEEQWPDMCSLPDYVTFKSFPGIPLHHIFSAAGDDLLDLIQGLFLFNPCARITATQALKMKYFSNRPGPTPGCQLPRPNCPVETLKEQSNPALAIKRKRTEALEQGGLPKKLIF
CAK (CDK7), sequence (P51946 whole entry partner, species assumed): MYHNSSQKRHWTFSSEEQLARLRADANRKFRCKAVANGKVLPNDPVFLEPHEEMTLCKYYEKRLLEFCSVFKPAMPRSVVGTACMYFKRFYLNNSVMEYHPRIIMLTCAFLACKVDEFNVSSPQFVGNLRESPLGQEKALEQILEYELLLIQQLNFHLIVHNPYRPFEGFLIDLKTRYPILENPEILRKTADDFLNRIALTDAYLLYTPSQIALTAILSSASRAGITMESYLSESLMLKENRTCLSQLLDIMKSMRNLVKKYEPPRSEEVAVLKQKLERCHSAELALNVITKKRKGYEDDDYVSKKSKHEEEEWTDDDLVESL
CAK (CDK7), sequence (P51948 whole entry partner, species assumed): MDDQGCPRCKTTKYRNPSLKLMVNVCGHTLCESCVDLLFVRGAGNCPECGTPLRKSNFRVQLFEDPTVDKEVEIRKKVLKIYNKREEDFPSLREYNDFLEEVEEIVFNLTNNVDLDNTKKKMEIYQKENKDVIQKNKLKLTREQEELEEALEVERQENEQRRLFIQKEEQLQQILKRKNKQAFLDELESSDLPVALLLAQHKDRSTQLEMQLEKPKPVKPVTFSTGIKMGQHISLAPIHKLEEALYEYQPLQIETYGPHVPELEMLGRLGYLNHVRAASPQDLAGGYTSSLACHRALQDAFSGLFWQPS

Take `COc1ncc2sc3c(c2n1)SCCNC3=O` [kmg-NB4-23, 2-Methoxy-7H,8H,9H-1,4-thiazepino[7′,6′-5,4]thiopheno[3,2-d]pyrimidin-6-one]: the melting point is 308 °C (dec.). Besides, in [1], the IC50 was more than 100 µM. Moreover, in data set [2], the IC50 is more than 100 µM. The “PKD inhibition, in words” value in [3] is “potent nanomolar inhibitor”. In addition, the IC50 in [3] (setting [9]) is 124 nM. The IC50 in [3] (setting [10]) came to 120 ± 30 nM. The IC50 in data set [4] was more than 100 µM. In data set [5], this compound displayed an IC50 of 6800 ± 1300 nM. Moreover, the half-inhibitory concentration (IC50) in data set [6] is more than 100 µM.

For the compound `O=C1NCCSc2c1sc1cnc(O)nc21` [kmg-NB4-69A, 2-Hydroxy-7H,8H,9H-1,4-thiazepino[7′,6′-5,4]thiopheno[3,2-d]pyrimidin-6-one], in [7], the “stability in protic solvents” value is “spontaneously degrade in protic solvents”. The “PKD inhibition, in words” value in data set [3] is reported as “only weak inhibitory effect”. Moreover, in data set [3] (setting [10]), the IC50 is 25300 nM.

Turning to `O=C1NCCCc2c1[nH]c1ccc(O)cc21` [kb-NB123-57, 3,4,5,10-Tetrahydro-7-hydroxy-azepino[3,4-b]indol-1(2H)-one], the IC50 in data set [1] is more than 100 µM; in data set [2], more than 100 µM; in data set [8], 2140 ± 120 nM; in data set [3] (setting [9]), 130 nM; in [4] it was more than 100 µM; in data set [5] it was more than 50000 nM. For the same compound, the IC50 in data set [6] is 39.2 ± 10.2 µM. For the same compound, in data set [5] (PMA-induced PKD1 autophosphorylation at S916, LNCaP), the “cellular PKD1 inhibition, in words” value was “no significant cellular activity; also recorded: weaker inhibition”.

Turning to `[N-]=[N+]=Nc1ccc2sc3c(c2c1)SCCNC3=O` [mcf292-08, 3,4-Dihydro-9-azido-[1]benzothieno[2,3-f]-1,4-thiazepin-5(2H)-one], the melting point was 193 °C (dec.). For the same compound, the IC50 in data set [1] is more than 50 µM. In data set [2], the IC50 was more than 50 µM. Also, the IC50 in data set [3] (setting [9]) was determined as 74.9 nM. In addition, the IC50 in data set [3] (setting [10]) amounted to 80 ± 10 nM. For the same compound, in data set [4], the IC50 was more than 50 µM. Besides, the IC50 in [5] was 2200 nM and 2170 nM. The IC50 in [6] was more than 50 µM.

Source of the values: patent US9840515B2, “Protein kinase D inhibitors” (University of Pittsburgh—Of the Commonwealth System of …, priority 2010, dated 2017).
